In data set [1] the target is T1, CYP17 (human testicular microsome) (Homo sapiens, UniProt P05093).
T1 construct: using microsomal fraction from human testis (Celsis Cat #S00110) as the enzyme source; tissue Celsis S00110; host or cells: human testis microsomal fraction
T1 sequence (P05093 1-508): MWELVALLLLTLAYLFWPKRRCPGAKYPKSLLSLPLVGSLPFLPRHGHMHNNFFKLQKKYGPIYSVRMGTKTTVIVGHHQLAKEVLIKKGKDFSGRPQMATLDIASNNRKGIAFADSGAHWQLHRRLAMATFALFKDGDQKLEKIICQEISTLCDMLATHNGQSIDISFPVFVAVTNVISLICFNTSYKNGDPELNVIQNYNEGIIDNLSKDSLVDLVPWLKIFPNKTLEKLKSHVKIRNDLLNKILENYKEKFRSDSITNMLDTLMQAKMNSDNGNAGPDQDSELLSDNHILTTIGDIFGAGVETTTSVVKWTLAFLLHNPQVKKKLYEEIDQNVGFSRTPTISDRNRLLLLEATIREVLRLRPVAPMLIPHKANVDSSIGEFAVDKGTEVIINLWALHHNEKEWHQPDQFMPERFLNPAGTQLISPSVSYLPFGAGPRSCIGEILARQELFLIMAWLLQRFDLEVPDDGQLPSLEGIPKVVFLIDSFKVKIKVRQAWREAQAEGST
Put plainly: CYP17 enzymatic assay (% inhibition at 10 nM), version 1 (Biological Example 5). Particulars: 10 nM compound, DHEA by ELISA, read-out: Biological Example No. 5: CYP17 percent inhibition at 10 nM (version 1). It is filed as biochemical.

Data set [2] relates to rat Cyp11B enzyme (rat adrenal mitochondria). In words: CYP11B enzymatic assay (% inhibition at 100 nM) (Biological Example 9). It is filed as biochemical. As to conditions: for Biological Example No. 9: CYP11B percent inhibition at 100 nM: 100 nM compound, cortisol by ELISA; for CYP11B enzymatic assay % inhibition at 100 nM (Biological Example No. 9): compound at 100 nM. The essentials: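 Sprague Dawley rat adrenal mitochondria were incubated with compound at 100 nM, 0.5 mM NADPH and 0.1 μM 11-deoxycortisol (pH 7.4 Tris buffer) for 60 min at 37 °C. Cortisol was measured by ELISA and corrected by subtracting the no-NADPH background. % inhibition is relative to the no-compound reaction.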
On the technique in general: ELISA stands for enzyme-linked immunosorbent assay.

Data set [3] addresses T2, Cyp21 enzyme (Human HEK 293-Cyp21 stable transfected cells) (Homo sapiens, UniProt P08686).
T2 construct: expressed in transfected cells
T2 sequence (P08686 1-495): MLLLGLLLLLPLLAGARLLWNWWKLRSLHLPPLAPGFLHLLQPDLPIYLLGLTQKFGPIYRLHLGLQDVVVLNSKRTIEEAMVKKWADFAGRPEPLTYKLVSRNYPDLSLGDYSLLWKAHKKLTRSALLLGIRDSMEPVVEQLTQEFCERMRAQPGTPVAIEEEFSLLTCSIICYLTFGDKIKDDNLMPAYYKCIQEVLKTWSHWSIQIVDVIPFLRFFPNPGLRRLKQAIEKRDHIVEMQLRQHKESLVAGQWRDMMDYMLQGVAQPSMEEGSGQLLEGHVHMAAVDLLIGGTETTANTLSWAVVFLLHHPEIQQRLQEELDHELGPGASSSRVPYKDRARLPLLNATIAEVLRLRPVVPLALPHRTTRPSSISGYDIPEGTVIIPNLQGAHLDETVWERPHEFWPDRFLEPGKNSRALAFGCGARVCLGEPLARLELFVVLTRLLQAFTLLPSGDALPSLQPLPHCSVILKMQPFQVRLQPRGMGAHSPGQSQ
Put plainly: CYP21-HEK293 enzymatic assay (% inhibition at 100 nM) (Biological Example 10). As to conditions: HEK 293-Cyp21 cells. In kind it is cell-based. The protocol: Proceeding using methods similar to those described in Biological Example 11, the percent inhibition at 100 nM was measured.
This assay was used to determine compound activity against Cyp21 enzyme. Human HEK 293-Cyp21 stable transfected cells (maintained in complete growth media DMEM+10% FBS, supplemented with 125 ug/mL Hygromycin) were seeded in a 96-well plate at 20,000 cells/well/100 uL in DMEM plus 10% FBS and allowed to attach overnight. The next day, 20 μL medium was carefully removed and 10 μL of 10× pre-made compounds in DMEM+10% FBS+10% methanol was transferred to the wells to final concentrations of 1000, 100, 10, 1, or 0.1 nM. Mock treatment was 1% methanol in growth media and the cells were left at 37° C., 5% CO2 for 5 hr. After the incubation, 10 μL of substrate progesterone (Sigma) was added to the wells to make a final concentration of 10 μM. The cells were incubated the cells at 37° C. for 20 hr. At the end of incubation, 90 μL of conditioned media was removed to measure DOC level by ELISA.
Preparation of the DOC ELISA: 100 μL of coating buffer (0.025M PBS pH 7.4) containing 200 ng/mL DOC-3-carboxymethyloxime-BSA (Steraloids. inc, Cat#3469-000) was added to each well of a 96-well plate and incubated overnight at 4° C. The next day, the plates were washed twice with 250 μl of wash solution (0.015M PBS pH 7.4 containing 0.05% Tween 20). After being washed, the wells were blocked with 250 μL blocking buffer (3% BSA in 0.025M PBS, pH 7.4) at 37° C. for 2 h. The plates were washed again 3 times as before, and then 90 μL of sample /standards (prepared in complete growth media) was added into the appropriate wells followed by 10 μL of antibody solution (1:450 rabbit anti-DOC in 0.6% BSA/PBS). The plates were incubated at room temperature for 2 h on a shaker. The contents of the wells were removed and the plate was washed 4 times. After the final wash, 100 μL of secondary antibody (1:12000 HRP-goat-anti-rabbit IgG conjugate 0.6% BSA/PBS) was added into each well. The plate was incubated at 30° C. for 45 min. The plate was washed again 4 times and 100 μL of TMB substrate solution was added to each well. The plate was incubated at room temperature for 10 min. 100 μL of stop solution was added to each well and the optical density was read at 450 nm.
The mean absorbance value for each sample was used to determine the corresponding concentration from the standard curve. Data was analyzed with “log(antagonist) vs response variable slope” under “non-linear regression analysis” using Prism5 software.

The nature of data set [4]: Human liver microsome stability assay (Biological Example 8b). As to conditions: liver microsomes, pH 7.4.
Description: The reaction was started with addition of excess NADPH (5 mg/mL, 15 μL in 0.1 M potassium phosphate buffer, 1.0 mM EDTA, pH 7.4), the total volume is 45 μL (compound final concentration was 1 μM). […] 50 μL of the supernatant was transferred from each well into a 96-well sample plate containing 50 μL of ultra-pure water (Millipore) for LC-MS/MS analysis.
Data set [5] concerns the target T1, CYP17 (human testicular microsome). In words: CYP17 enzymatic assay (IC50) (Biological Example 4). It is filed as biochemical. As to conditions: human testicular microsome.
Data set [6] has the same target. Put plainly: CYP17 enzymatic assay (% inhibition at 1 nM) (Biological Example 12). As to conditions: compound at 1 nM, read-out: CYP17 enzymatic assay % inhibition at 1 nM (Biological Example No. 12). In kind it is biochemical.
Data set [7] has as its target T2, Cyp21 enzyme (Human HEK 293-Cyp21 stable transfected cells). Put plainly: CYP21-HEK293 enzymatic assay (IC50) (Biological Example 11). In kind it is cell-based. As to conditions: HEK 293-Cyp21 cells; read-out: CYP21-HEK293 enzymatic assay IC50 (Biological Example No. 11).
The mark [8] stands for this setting: 100 nM compound, read-out: Biological Example No. 10: CYP21-HEK293 percent inhibition at 100 nM.
[9] abbreviates: DHEA by ELISA, read-out: Biological Example No. 4: CYP17 enzymatic assay IC50.
Setting [10] is: read-out: CYP17 enzymatic assay IC50 (Biological Example No. 4).
Where [11] appears, read: compound at 100 nM, read-out: CYP21-HEK293 enzymatic assay % inhibition at 100 nM (Biological Example No. 10).

These results are taken from US20130252930A1 (BIOMARIN PHARMACEUTICAL INC., priority 2010, published 2013).

Read-outs that look alike come from different tables or passages of the source.

Turning to `C[C@]12CC[C@H]3[C@@H](CCN4CCCCC[C@]34C)[C@@H]1CC=C2c1cccnc1` [Compound 44, (11aR,13aS)-11a,13a-dimethyl-1-(pyridin-3-yl)-3a,3b,4,5,7,8,9,10,11,11a,11b,12,13,13a-tetradecahydro-3H-azepino[2,1-a]cyclopenta[f]isoquinoline], the inhibition (usually the relative decrease from the control value, in per cent) at 0.01 µM in data set [1] was 1 to 50%. Moreover, the “Biological Example No. 9: CYP11B percent inhibition at 100 nM” value in data set [2] is listed as “na (“na” means the compound was not active under the conditions tested)”. Moreover, the inhibition at 0.1 µM in data set [3] (setting [8]) is below 30%.
As to `C[C@]12CCCC(=O)CC1=CCC1[C@@H]2CC[C@]2(C)C(n3ccnc3)=CC[C@@H]12` (stereo partly drawn) [Compound 107, (3aS,10aR,10bS,12aS)-1-(1H-imidazol-1-yl)-10a,12a-dimethyl-3,3a,3b,4,8,9,10,10a,10b,11,12,12a-dodecahydrocyclohepta[a]cyclopenta[f]naphthalen-7(6H)-one], the half-life (commonly the time in which the quantity being followed falls by half) at 1 μM in data set [4] is 1 to 50 min. The IC50 – broadly, the point on the concentration scale where inhibition reaches its midpoint – in data set [5] (setting [9]) was below 0.011 µM. For the same compound, the inhibition at 0.01 µM in data set [1] is above 80%. Besides, the inhibition at 0.1 µM in data set [3] (setting [8]) was at least 30%.
On to `CN1CC=C2CC[C@@H]3[C@H](CC[C@]4(C)C(c5cccnc5)=CC[C@@H]34)[C@@]2(C)CC1` [Compound 147, (5aR,7aS)-2,5a,7a-trimethyl-8-(pyridin-3-yl)-2,3,4,5,5a,5b,6,7,7a,10,10a,10b,11,12-tetradecahydrocyclopenta[5,6]naphtho[2,1-c]azepine], for which the inhibition at 0.01 µM in data set [1] was 1 to 50%. In data set [2], the “Biological Example No. 9: CYP11B percent inhibition at 100 nM” value is recorded as “na (“na” means the compound was not active under the conditions tested)”. In data set [3] (setting [8]), the inhibition at 0.1 µM was below 30%.
The like results for `CN1CC=C2CC[C@@H]3[C@H](CC[C@]4(C)C(n5ccnc5)=CC[C@@H]34)[C@@]2(C)CC1` [Compound 151] were, in that order, 1 to 50%, “T (T means the compound had a percent inhibition of less than 32% when tested at 100 nM)” and below 30%.
With `C[C@]12CCC(=O)NC=C1CCC1C2CC[C@]2(C)C(n3cnnn3)=CCC12` (stereo partly drawn) [Compound 156, (5aR,7aS)-5a,7a-dimethyl-8-(1H-tetrazol-1-yl)-4,5,5a,5b,6,7,7a,10,10a,10b,11,12-dodecahydrocyclopenta[5,6]naphtho[2,1-c]azepin-3(2H)-one], in data set [2], the “Biological Example No. 9: CYP11B percent inhibition at 100 nM” value was “U (U means the compound had a percent inhibition of greater than or equal to 32%)”. Moreover, the inhibition at 0.1 µM in data set [3] (setting [8]) was below 30%.
`COc1cncc(C2=CC=C3[C@@H]4CCC5=CC(=O)N(C)CC[C@]5(C)[C@H]4CC[C@]23C)c1` [Compound 159] showed a half-life at 1 μM in data set [4] of 1 to 50 min. Moreover, the IC50 in data set [5] (setting [9]) is below 0.011 µM. In addition, in data set [1], the inhibition at 0.01 µM is above 80%. The inhibition at 0.1 µM in data set [3] (setting [8]) was at least 30%.
`COC(=O)NC1CC[C@@]2(C)C(=CCC3C2CC[C@]2(C)C(n4ccnc4)=CCC32)C1` (stereo partly drawn) [Compound 239, methyl ((10R,13S)-17-(1H-imidazol-1-yl)-10,13-dimethyl-2,3,4,7,8,9,10,11,12,13,14,15-dodecahydro-1H-cyclopenta[a]phenanthren-3-yl)carbamate]: the IC50 in data set [5] (setting [10]) is below 0.011 µM. Moreover, the “CYP11B enzymatic assay % inhibition at 100 nM (Biological Example No. 9)” value in data set [2] is “T (T means the compound had a percent inhibition of less than 32% when tested at 100 nM)”. The inhibition at 0.1 µM in data set [3] (setting [11]) is below 30%. Also, in data set [6], the inhibition at 0.001 µM was above 50%.
Regarding `CC(=O)N[C@@H]1CC[C@@]2(C)C(=CC[C@H]3C4=CC=C(n5ccnc5)[C@@]4(C)CC[C@@H]32)C1` [Compound 245, N-((3R,10R,13S)-17-(1H-imidazol-1-yl)-10,13-dimethyl-2,3,4,7,8,9,10,11,12,13-decahydro-1H-cyclopenta[a]phenanthren-3-yl)acetamide], the “CYP11B enzymatic assay % inhibition at 100 nM (Biological Example No. 9)” value in data set [2] was “T (T means the compound had a percent inhibition of less than 32% when tested at 100 nM)”. In addition, the inhibition at 0.1 µM in data set [3] (setting [11]) was below 30%. Also, the inhibition at 0.001 µM in data set [6] lay within 10 to 50%.
With `C[C@]12CC[C@H]3[C@@H](CC=C4C[C@H](NC(=O)C5CC5)CC[C@@]43C)C1=CC=C2n1ccnc1` [Compound 246, N-((3R,10R,13S)-17-(1H-imidazol-1-yl)-10,13-dimethyl-2,3,4,7,8,9,10,11,12,13-decahydro-1H-cyclopenta[a]phenanthren-3-yl)cyclopropanecarboxamide], the “CYP11B enzymatic assay % inhibition at 100 nM (Biological Example No. 9)” value in data set [2] is “U (U means the compound had a percent inhibition of greater than or equal to 32%)”. In addition, the inhibition at 0.1 µM in data set [3] (setting [11]) is below 30%. Besides, the inhibition at 0.001 µM in data set [6] fell in the range of 10 to 50%.
In data set [4], `CON=C1C=C2CCC3C4=CC=C(c5cccnc5)[C@@]4(C)CCC3[C@@]2(C)CC1` (stereo partly drawn) [Compound 287, (10R,13S)-10,13-dimethyl-17-(pyridin-3-yl)-6,7,8,9,10,11,12,13-octahydro-1H-cyclopenta[a]phenanthren-3(2H)-one O-methyl oxime] came in with a half-life at 1 μM above 50 min. In addition, the IC50 in data set [5] (setting [10]) is below 0.011 µM; in data set [7], above 0.1 µM. For the same compound, in data set [3] (setting [11]), the inhibition at 0.1 µM is at least 30%. The inhibition at 0.001 µM in data set [6] was in the range of 10 to 50%.
